Our source for the Ki values is BindingDB's records for doi:10.1111/j.1747-0285.2009.00842.x (Universita Degli Studi Di Firenze, 2009).

In one experiment the target is Carbonic anhydrase 7 (Homo sapiens, UniProt P43166). Kind of experiment: Inhibition Assay. The settings on record: pH 7.4; 25 °C.
The next experiment concerns the target Carbonic anhydrase 2 (Homo sapiens, UniProt P00918). The experiment can be described thus: Inhibition Assay. Conditions: pH 7.4; 25 °C.

Carbonic anhydrase 7, sequence (P43166 whole entry): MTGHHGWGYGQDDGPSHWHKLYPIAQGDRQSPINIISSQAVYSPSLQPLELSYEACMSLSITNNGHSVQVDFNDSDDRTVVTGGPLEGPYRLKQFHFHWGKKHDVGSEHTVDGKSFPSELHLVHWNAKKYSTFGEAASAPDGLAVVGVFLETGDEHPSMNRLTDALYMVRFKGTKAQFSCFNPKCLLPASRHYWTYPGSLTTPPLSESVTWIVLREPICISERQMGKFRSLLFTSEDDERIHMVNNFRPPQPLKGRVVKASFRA

As for `NS(=O)(=O)c1ccc(O)cc1` [p-Hydroxy-benzene derivative, 3a], the inhibitory constant (Ki) at Carbonic anhydrase 7 worked out at 88 nM.

As to `CN(C)c1ccc(/N=N/c2ccc(S(N)(=O)=O)cc2)cc1`, affinity at Carbonic anhydrase 7 was put at a Ki of 30 nM.

In the case of `CNS(=O)(=O)c1ccc(N=Nc2ccc(O)cc2)cc1` [p-Phenyldiazenyl derivative, 8], the Ki was found to be 706 nM on Carbonic anhydrase 7 and 277 nM on Carbonic anhydrase 2.

`NS(=O)(=O)c1ccc(Br)cc1` [p-Halide-sulfanilamide derivative, 2a] had an inhibition constant Ki on Carbonic anhydrase 7 of 68 nM.

For `COc1ccc(/N=N/c2ccc(S(=O)(=O)N(C)C)cc2)cc1` [p-Phenyldiazenyl derivative, 6], the Ki on Carbonic anhydrase 7 was 4200 nM; on Carbonic anhydrase 2, 863 nM.

`NS(=O)(=O)c1ccc(Cl)cc1` [p-Halide-sulfanilamide derivative, 2] had a Ki on Carbonic anhydrase 2 of 17.5 nM.

`CN(C)S(=O)(=O)c1ccc(N=Nc2ccc(O)cc2)cc1` [p-Phenyldiazenyl derivative, 7]: the results for the inhibitory constant (Ki) at Carbonic anhydrase 7 and at Carbonic anhydrase 2 were 752 nM and 312 nM, respectively.

On Carbonic anhydrase 2, `NS(=O)(=O)c1ccc(I)cc1` [p-Halide-sulfanilamide derivative, 3] returned a Ki of 81 nM.

The Ki is a measure of affinity in units of concentration, obtained from inhibition or displacement. A low value points to higher affinity.
